# Assay results from paper PMC7836013, “Characterization of Formononetin Sulfonation in SULT1A3 Overexpressing HKE293 Cells: Involvement of Multidrug Resistance-Associated Protein 4 in Excretion of Sulfate” (Frontiers in Pharmacology, 2021).
# Where a name gives a salt, the structure may show the parent alone.
# Columns and labels:
# MRP4 [1] = target: T1, MRP4 (Homo sapiens, UniProt O15439); test: Effect of shRNA-mediated MRP4 knockdown on formononetin disposition in HEK-SULT1A3 cells; type: cell-based; details: shMRP4 vs scramble, formononetin 2.5 and 10 μM
# T1 construct: MRP4 was the only expressed MRPs family transporter in HEK-SULT1A3 cells; endogenous in cells; host or cells: HEK-SULT1A3 cells (HEK293 stably expressing SULT1A3)
# T1 sequence (O15439 1-1325): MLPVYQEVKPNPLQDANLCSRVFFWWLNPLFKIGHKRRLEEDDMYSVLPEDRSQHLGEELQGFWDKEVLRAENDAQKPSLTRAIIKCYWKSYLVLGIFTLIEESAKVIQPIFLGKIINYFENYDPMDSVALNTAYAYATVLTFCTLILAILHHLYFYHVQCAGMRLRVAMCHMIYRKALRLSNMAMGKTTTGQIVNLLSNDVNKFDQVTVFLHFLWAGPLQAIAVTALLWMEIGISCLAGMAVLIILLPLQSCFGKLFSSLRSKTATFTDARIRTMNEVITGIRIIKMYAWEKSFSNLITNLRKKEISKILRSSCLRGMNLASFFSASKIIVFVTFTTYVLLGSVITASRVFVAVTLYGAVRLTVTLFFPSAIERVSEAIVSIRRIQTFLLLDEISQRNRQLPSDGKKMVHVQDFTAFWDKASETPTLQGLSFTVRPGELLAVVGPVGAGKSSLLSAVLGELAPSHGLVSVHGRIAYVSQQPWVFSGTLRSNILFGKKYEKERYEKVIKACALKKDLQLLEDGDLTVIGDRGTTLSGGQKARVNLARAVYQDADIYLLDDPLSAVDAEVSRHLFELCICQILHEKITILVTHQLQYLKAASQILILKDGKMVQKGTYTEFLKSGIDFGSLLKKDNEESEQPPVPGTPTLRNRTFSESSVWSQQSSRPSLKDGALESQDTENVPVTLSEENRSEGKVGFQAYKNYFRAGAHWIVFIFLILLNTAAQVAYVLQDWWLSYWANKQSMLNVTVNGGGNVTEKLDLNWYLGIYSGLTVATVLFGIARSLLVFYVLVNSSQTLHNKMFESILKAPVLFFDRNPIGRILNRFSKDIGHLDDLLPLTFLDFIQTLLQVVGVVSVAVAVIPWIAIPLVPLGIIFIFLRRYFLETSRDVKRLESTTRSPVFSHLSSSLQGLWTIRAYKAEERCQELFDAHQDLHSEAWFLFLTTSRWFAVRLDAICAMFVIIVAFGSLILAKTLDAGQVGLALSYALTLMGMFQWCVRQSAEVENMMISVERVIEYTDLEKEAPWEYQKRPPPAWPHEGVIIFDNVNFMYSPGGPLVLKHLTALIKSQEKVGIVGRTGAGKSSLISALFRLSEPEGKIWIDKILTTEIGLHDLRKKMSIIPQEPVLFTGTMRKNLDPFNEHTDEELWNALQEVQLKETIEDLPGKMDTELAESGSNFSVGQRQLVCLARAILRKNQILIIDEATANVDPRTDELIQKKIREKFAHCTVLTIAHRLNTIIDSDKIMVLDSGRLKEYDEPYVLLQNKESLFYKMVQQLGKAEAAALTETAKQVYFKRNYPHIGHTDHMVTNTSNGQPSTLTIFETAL
# Method: The sulfate excretion experiments were conducted using HEK-SULT1A3 cells model. In brief, HEK-SULT1A3 cells were washed with Hank's Balanced Salt Solution (HBSS) buffer (37°C, pH = 7.2) for three times. Then the cells were incubated with 2 ml HBSS buffer containing different concentrations of formononetin (final concentrations of 2.5 μM or 10 μM) at 37°C. 200 μL of incubation medium was sampled from each well at various times (0.5, 1.0, 1.5, and 2.0 h). Meanwhile, 200 μL of dosing solution was added immediately. The extracted samples were mixed with 100 μL ice-cold acetonitrile and vortexed for 1 min. The supernatant after centrifugation (15,000 g; 15 min) was injected into HPLC for analysis. After the last samples were taken, cells were collected into 400 μL ice-cold MeOH:H2O (1:1, v/v) and processed to measure the intracellular amount of formononetin sulfate. The excretion rate (ER) of intracellular sulfate was calculated exactly as described in our publications (Liu et al., 2018). The apparent efflux clearance (CLef,app) was derived as the excretion rate divided by the intracellular concentration of sulfate (Ci). Ci was determined by dividing intracellular amount of sulfate at 2 h by intracellular volume. The intracellular volume of HEK293 cells was measured using sulfanilamide as described ([Zhou et al., 2015]). […] Further, the fraction of dose metabolized (fmet), an indicator of the extent of drug sulfonation, was calculated according to Eq. 2. fmet=excreted sulfate+intracellular sulfate/total dosed aglycone (2) The cells were collected and lysed in RIPA Lysis Buffer (Beyotime, Shanghai) in advance. After quantified using BCA protein assay kit (Thermo Scientific, Waltham, Massachusetts), the cells samples or individual human intestine S9 fractions were analyzed by sodium dodecyl sulfate polyacrylamide gel electrophoresis (10% acrylamide gels) and transferred to polyvinylidene fluoride membranes ([…], Millipore, Bedford, MA). […] And then the protein bands were scanned in grayscale and subjected to semiquantitative analysis using Quantity One software.
# HEK-SULT1A3 cell lysate [2] = target: T2, HEK-SULT1A3 cell lysate (Homo sapiens, UniProt P0DMM9); test: Effect of chemical inhibitors on formononetin sulfonation in HEK-SULT1A3 cell lysate; type: in vitro ADME; details: inhibitor 5–20 μM, formononetin 2.5 and 10 μM, p > 0.05
# T2 construct: expressed in transfected cells; cell lysate used
# MRP4 [3] = target: T1, MRP4; test: Effect of MK-571 on formononetin sulfate excretion in HEK-SULT1A3 cells; type: cell-based
# Method: The sulfate excretion experiments were conducted using HEK-SULT1A3 cells model. In brief, HEK-SULT1A3 cells were washed with Hank's Balanced Salt Solution (HBSS) buffer (37°C, pH = 7.2) for three times. Then the cells were incubated with 2 ml HBSS buffer containing different concentrations of formononetin (final concentrations of 2.5 μM or 10 μM) at 37°C. 200 μL of incubation medium was sampled from each well at various times (0.5, 1.0, 1.5, and 2.0 h). Meanwhile, 200 μL of dosing solution was added immediately. The extracted samples were mixed with 100 μL ice-cold acetonitrile and vortexed for 1 min. The supernatant after centrifugation (15,000 g; 15 min) was injected into HPLC for analysis. After the last samples were taken, cells were collected into 400 μL ice-cold MeOH:H2O (1:1, v/v) and processed to measure the intracellular amount of formononetin sulfate. The excretion rate (ER) of intracellular sulfate was calculated exactly as described in our publications (Liu et al., 2018). The apparent efflux clearance (CLef,app) was derived as the excretion rate divided by the intracellular concentration of sulfate (Ci). Ci was determined by dividing intracellular amount of sulfate at 2 h by intracellular volume. The intracellular volume of HEK293 cells was measured using sulfanilamide as described ([Zhou et al., 2015]).
# HEK-SULT1A3 cell lysate [4] = target: T2, HEK-SULT1A3 cell lysate; test: Formononetin sulfonation enzyme kinetics in HEK-SULT1A3 cell lysate; type: in vitro ADME; details: Michaelis-Menten, mean ± SD (n = 3)
# Method: Enzyme kinetic of formononetin incubated with recombinant human SULT1A3 enzyme (rSULT1A3) was evaluated. The reaction was activated after the coenzyme PAPS (which provides sulfonate group to the substrates) was added. The incubation reaction was conducted in 200 μL potassium phosphate buffer (50 mM, pH 7.4) at 37°C, containing SULT1A3 enzyme (0.1 mg/ml), formononetin (0.16–40 μM), and PAPS (a final concentration of 0.10 mM). After incubation for 120 min, the reaction was terminated by adding 100 μL ice-cold acetonitrile. Then the samples were vortexed and centrifuged at 15,000 g for 15 min. The supernatant was analyzed by HPLC for sulfate quantification. All incubations were performed in triplicate. Preliminary experiments were performed to ensure that the rates of sulfation were determined under linear conditions with respect to incubation time and protein concentration.
# The sulfonation rates of formononetin at different concentrations were determined according to the sulfonation assay protocol. […] The intrinsic clearance (CLint) was calculated by Vmax/Km.
# Quantification of formononetin sulfate was performed using Agilent 1,260 Infinity II HPLC system with a ZORBAX SB-C18 column (4.6 × 250 mm, 5 μm; Agilent). […] The samples were analyzed using a gradient of ammonium acetate (2.5 mM) in water (mobile phase A) vs. acetonitrile (mobile phase B) at a flow rate of 1.0 ml/min. […]
# [5] = set-up: method as in Singh and Wahajuddin, 2011; details: ref Singh and Wahajuddin, 2011; cited from earlier work
# [6] = MK-571 5–20 μM, formononetin 2.5 μM, p < 0.001
# [7] = MK-571 5–20 μM, formononetin 10 μM, p < 0.001
# T2 sequence (P0DMM9 whole entry): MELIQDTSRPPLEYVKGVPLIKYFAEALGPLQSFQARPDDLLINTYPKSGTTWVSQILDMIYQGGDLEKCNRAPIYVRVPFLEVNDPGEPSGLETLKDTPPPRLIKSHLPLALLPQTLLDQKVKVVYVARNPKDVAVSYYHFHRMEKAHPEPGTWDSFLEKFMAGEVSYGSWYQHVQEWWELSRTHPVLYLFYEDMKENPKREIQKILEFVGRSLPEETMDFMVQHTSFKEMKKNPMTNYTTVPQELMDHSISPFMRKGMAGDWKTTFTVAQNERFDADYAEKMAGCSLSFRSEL
smiles,measurement,setting,value
"COc1ccc(-c2coc3cc(OS(=O)(=O)O)ccc3c2=O)cc1 [F-O-S, formononetin sulfate]","Decrease in CLef,app of F-O-S on MRP4 knockdown",MRP4 [1]; p < 0.01,> 50.6%
same,Reduction in sulfate excretion rates on MRP4 knockdown,MRP4 [1]; p < 0.01,> 32.8%
same,Elevation in intracellular amounts of F-O-S on MRP4 knockdown,MRP4 [1]; p < 0.05,> 127.4%
CN(C)C(=O)CCSC(SCCC(=O)O)c1cccc(/C=C/c2ccc3ccc(Cl)cc3n2)c1 (stereo not drawn) [MK-571],Effect of inhibitor on formononetin sulfonation (generation of F-O-S),HEK-SULT1A3 cell lysate [2],did not alter
same,"Decrease of CLef,app of F-O-S",MRP4 [3]; [6],85.3%–98.0%
same,Reduction in excretion of F-O-S,MRP4 [3]; [6],79.1%–94.6%
same,Decrease of excretion rates of F-O-S,MRP4 [3]; [7],79.8%–95.7%
same,Increase of intracellular level of F-O-S,MRP4 [3]; [7],160.6%–188.8%
same,"Reduction of CLef,app of F-O-S",MRP4 [3]; [7],87.3%–97.7%
same,Suppression of excretion of formononetin sulfate,MRP4 [3]; MK-571 at 20 μM,> 94%
"COc1ccc(-c2coc3cc(O)ccc3c2=O)cc1 [formononetin, Formononetin]",Vmax of formononetin sulfonation,HEK-SULT1A3 cell lysate [4],13.94 ± 0.83 pmol/min/mg
same,Bioavailability of unchanged formononetin,[5],approximately 3%
